Legend:
Type in all cases: biochemical
[1] = molecular target: T1, WRN helicase domain fragment (Homo sapiens, UniProt Q14191); experiment: WRN-hel-f2 protocol qHTS confirmatory (15 compound confirmatory assay); details: NA = Not Active
T1 construct: GST (N); made in house
Procedure: The structures of the members of this collection are available in the PubChem portal https://pubchem.ncbi.nlm.nih.gov/. For both the 350,000 small molecule collection and the LOPAC^1280 screens, 3 μL of GST-WRN500-946 or reaction buffer only were dispensed using a solenoid-valve nanoliter dispenser into a black 1536-well plate (Greiner). Twenty three nL of each serially diluted compound (0.08–50 μM for the LOPAC screen and 0.003–114 μM for the larger library screen) or control were added to each well using a Kalypsys pintool equipped with a 1536-pin array. Plates were incubated at room temperature for 15 min, followed by initiation of the reactions via the addition of 1 μL of substrate (100 nM FORKF and 2 mM ATP final concentrations). Plates were transferred to a ViewLux high-throughput CCD imager and fluorescence was measured in kinetic mode using an excitation filter of 525 nm and emission filter of 598 nm.

[2] = molecular target: T2, full-length FANCJ helicase (Homo sapiens, UniProt Q9BX63); experiment: Radiometric helicase assay, full-length FANCJ; details: for IC50: full-length FANCJ 5 nM, FORKR 0.5 nM
T2 construct: Full length recombinant WRN [18], BLM [19], and FANCJ [20] proteins were purified from insect cells; made in house; host or cells: insect cells
T2 sequence (Q9BX63 1-1249): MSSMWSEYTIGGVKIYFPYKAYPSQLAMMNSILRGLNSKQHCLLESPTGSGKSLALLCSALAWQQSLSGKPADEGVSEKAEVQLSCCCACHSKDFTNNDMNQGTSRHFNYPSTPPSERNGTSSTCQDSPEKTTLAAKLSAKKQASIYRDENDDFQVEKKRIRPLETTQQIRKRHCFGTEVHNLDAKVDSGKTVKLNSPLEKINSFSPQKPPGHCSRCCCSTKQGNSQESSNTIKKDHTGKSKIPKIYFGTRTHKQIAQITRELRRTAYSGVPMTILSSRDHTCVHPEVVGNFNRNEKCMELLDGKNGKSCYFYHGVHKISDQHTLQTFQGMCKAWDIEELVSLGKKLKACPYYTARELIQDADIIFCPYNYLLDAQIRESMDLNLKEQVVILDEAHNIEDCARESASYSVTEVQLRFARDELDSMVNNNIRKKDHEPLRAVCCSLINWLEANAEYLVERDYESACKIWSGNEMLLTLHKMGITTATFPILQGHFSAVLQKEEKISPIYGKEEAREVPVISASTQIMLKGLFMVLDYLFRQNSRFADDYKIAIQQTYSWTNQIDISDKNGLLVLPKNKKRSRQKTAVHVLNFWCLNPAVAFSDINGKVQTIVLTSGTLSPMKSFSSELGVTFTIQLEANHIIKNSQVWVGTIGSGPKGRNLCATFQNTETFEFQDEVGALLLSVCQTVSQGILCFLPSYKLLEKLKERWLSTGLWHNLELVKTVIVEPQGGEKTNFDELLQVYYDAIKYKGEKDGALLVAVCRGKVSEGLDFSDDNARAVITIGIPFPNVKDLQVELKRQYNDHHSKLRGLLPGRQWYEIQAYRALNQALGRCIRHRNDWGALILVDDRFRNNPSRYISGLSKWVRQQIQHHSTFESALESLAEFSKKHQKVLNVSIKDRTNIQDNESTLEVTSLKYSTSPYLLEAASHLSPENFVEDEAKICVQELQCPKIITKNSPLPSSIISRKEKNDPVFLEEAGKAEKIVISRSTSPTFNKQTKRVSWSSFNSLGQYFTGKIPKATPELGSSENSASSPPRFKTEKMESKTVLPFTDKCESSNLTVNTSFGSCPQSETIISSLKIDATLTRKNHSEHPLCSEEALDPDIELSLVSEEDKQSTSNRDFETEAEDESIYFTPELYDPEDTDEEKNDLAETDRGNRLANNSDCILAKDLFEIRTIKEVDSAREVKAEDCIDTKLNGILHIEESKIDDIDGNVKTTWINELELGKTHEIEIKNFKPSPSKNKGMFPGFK
Procedure: (§1) Fifteen μL of reaction buffer was added to a microcentrifuge tube followed by the addition of 1 μL of selected compounds (0.5–100 μM final concentration) or DMSO. One μL of WRN (full length), RECQ1, FANCJ, BLM or control was added to each reaction and incubated at room temperature for 15 min. Three μL of substrate (0.5 nM FORKR and 2 mM ATP final concentrations) were added to all reactions which were incubated at 37°C for 15 min. Reactions were stopped with the addition of 20 μL of 2X STOP dye containing EDTA, glycerol, bromphenol blue and xylene cyanol. Samples were electrophoresed for 1.5 hr at 200 V on a 12% non-denaturing PAGE gel in 1X TBE Buffer.
(§2) Three compounds identified from the cherry-picked set were tested for their effects on WRN exonuclease activity (20 nM) on the FORKR DNA substrate (1 nM) as well as DNA unwinding by full-length BLM (0.1 nM) and FANCJ (5 nM) helicases, which belong to the same Superfamily 2 as WRN [25], to assess their specificity for inhibition of WRN-catalyzed unwinding of the FORKR DNA substrate (0.5 nM). […] Nonetheless, these two compounds were also further tested in cell-based assays to assess their effects on proliferation.
(§3) Supplementary file pone.0210525.s005.TIF: S5 Fig Specificity of select WRN inhibitors for inhibition of other human helicases. (A) Quantitation of full-length BLM helicase (0.1 nM) activity on the FORKR DNA substrate (0.5 nM) with increasing concentration of each compound (0–100 μM). (B) Quantitation of full-length FANCJ (5 nM) helicase activity on the FORKR DNA substrate (0.5 nM) with increasing concentration of each compound (0–100 μM). (TIF) Click here for additional data file.

full-length BLM helicase = molecular target: T3, full-length BLM helicase (Homo sapiens, UniProt P54132); experiment: Radiometric helicase assay, full-length BLM; details: for IC50: full-length BLM 0.1 nM, FORKR 0.5 nM
T3 construct: Full length recombinant WRN [18], BLM [19], and FANCJ [20] proteins were purified from insect cells; made in house; host or cells: insect cells
T3 sequence (P54132 whole entry): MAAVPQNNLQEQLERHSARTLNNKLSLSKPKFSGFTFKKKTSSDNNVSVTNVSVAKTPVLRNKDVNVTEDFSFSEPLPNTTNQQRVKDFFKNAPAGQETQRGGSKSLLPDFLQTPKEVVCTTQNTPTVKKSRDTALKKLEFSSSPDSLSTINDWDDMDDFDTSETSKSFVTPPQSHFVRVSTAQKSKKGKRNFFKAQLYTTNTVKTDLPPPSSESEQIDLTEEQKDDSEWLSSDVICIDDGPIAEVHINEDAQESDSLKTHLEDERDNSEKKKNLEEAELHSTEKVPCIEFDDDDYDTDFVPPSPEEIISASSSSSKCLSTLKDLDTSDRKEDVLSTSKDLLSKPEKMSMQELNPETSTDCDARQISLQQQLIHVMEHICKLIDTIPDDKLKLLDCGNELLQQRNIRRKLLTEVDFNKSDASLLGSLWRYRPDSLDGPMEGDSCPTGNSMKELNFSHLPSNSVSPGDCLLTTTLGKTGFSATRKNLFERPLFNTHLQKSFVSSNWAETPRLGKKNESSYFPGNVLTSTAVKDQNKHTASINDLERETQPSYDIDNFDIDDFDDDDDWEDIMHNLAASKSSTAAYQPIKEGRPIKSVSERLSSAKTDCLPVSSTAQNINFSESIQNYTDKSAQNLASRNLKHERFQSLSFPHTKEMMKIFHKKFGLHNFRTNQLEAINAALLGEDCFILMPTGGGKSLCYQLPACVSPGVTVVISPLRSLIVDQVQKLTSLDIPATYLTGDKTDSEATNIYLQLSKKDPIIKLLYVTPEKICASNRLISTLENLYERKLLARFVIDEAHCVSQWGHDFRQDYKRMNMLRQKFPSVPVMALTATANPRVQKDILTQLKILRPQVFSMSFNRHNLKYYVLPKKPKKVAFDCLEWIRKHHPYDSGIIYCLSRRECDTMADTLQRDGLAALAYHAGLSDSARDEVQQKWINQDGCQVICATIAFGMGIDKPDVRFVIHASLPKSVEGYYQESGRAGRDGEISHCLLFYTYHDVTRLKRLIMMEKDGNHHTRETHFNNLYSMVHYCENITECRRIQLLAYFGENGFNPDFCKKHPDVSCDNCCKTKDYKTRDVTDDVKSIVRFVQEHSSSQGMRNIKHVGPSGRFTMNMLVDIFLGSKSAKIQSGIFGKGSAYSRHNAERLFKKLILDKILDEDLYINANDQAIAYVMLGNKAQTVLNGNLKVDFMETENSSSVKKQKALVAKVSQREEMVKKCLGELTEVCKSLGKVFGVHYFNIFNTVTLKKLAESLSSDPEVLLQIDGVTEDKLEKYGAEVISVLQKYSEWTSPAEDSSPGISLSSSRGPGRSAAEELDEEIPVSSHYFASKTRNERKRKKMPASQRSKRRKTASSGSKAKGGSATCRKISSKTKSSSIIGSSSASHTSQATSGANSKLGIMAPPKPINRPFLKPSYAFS
Procedure: as §1, §2, §3

[3] = molecular target: T4, full-length WRN exonuclease activity (Homo sapiens, UniProt Q14191); experiment: WRN exonuclease activity on radiolabeled FORKR DNA substrate; details: WRN 20 nM, FORKR 1 nM; for Inhibition of WRN exonuclease activity: same concentration range as activity against WRN helicase
T4 construct: Full length recombinant WRN [18], BLM [19], and FANCJ [20] proteins were purified from insect cells; made in house; host or cells: insect cells
T4 sequence (Q14191 whole entry): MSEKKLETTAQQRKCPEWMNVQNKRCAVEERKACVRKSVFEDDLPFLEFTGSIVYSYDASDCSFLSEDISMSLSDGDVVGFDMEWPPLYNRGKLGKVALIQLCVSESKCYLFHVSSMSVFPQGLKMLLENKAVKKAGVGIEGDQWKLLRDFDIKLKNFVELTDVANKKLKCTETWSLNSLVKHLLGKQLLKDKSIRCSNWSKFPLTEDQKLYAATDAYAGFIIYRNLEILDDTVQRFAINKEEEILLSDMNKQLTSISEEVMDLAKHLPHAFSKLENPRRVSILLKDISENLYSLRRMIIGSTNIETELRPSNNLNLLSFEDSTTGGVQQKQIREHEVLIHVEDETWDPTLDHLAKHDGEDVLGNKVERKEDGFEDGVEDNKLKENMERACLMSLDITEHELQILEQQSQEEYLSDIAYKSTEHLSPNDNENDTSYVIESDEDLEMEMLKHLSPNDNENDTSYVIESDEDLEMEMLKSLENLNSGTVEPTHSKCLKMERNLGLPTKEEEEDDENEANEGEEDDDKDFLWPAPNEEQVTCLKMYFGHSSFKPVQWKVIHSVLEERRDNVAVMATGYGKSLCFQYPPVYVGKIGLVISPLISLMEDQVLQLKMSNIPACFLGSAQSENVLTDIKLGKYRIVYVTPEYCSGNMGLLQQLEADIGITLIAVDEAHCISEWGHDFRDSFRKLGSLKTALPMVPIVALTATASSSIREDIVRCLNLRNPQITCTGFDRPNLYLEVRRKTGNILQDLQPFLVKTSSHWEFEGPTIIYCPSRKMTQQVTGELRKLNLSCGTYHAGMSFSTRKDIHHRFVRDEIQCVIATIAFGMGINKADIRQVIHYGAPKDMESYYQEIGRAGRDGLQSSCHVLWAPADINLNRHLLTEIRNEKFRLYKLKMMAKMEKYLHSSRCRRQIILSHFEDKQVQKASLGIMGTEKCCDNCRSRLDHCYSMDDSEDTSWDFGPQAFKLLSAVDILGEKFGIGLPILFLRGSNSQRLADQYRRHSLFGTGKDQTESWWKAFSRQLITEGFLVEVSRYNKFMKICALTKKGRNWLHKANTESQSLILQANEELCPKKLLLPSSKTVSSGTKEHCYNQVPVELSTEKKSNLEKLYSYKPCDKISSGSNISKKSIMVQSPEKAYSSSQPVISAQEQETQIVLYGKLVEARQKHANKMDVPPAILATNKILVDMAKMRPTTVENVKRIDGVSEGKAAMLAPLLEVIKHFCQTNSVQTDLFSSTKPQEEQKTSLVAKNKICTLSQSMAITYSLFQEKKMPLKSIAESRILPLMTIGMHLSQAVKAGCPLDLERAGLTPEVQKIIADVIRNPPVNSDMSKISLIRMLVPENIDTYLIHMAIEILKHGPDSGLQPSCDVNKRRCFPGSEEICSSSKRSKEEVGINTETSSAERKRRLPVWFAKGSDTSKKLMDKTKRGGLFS
Procedure: Fig 8 Specificity of selected compounds for inhibiting full-length WRN helicase activity. […] (B) Gel image of full-length WRN (20 nM) exonuclease activity on the radiolabeled FORKR DNA substrate (1 nM) in the presence of increasing concentrations of NCGC00029283-03, NCGC00063279-03 and NCGC00357377-01 (0–200 μM).
as §2

T1 sequence (Q14191 500-946): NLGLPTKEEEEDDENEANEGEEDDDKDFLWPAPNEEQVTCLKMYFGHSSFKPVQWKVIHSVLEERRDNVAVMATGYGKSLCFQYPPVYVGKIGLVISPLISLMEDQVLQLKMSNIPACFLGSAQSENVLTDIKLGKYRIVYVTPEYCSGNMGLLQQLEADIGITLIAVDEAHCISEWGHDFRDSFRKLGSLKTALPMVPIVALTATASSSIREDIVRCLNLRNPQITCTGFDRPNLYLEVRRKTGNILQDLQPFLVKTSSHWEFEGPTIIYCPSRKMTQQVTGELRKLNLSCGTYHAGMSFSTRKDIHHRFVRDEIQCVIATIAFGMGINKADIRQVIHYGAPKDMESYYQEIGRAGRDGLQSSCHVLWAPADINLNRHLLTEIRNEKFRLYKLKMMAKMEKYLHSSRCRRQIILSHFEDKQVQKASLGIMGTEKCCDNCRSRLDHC

Cc1ccc(-c2csc(NS(=O)(=O)c3cccc(F)c3)n2)o1 [MLS002251300-02]
IC50 [1]: 20 µM | IC50 for WRN helicase inhibition fold less than that observed for FANCJ ([2]; WRN vs FANCJ): 6 fold | IC50 [2]: 28.5 ± 2 µM | IC50 for WRN helicase inhibition fold less than that observed for BLM (full-length BLM helicase; WRN vs BLM): 2.5 fold | IC50 (full-length BLM helicase): 13 ± 2.6 µM | Inhibition of WRN exonuclease activity at 200 μM [3]: some ability to inhibit | Inhibition of WRN exonuclease activity [3]: unable to inhibit

COc1ccc2nc(O)c(-c3noc(-c4ccc(F)cc4)n3)cc2c1 [NCGC00029283-02]
IC50 [1]: 0.45 µM | IC50 [2]: 3.4 ± 0.5 µM | IC50 (full-length BLM helicase): 12.5 ± 1.8 µM | Inhibition of WRN exonuclease activity at 200 μM [3]: some ability to inhibit | Inhibition of WRN exonuclease activity [3]: unable to inhibit

COc1ccc2nc(O)c(-c3noc(-c4ccccc4)n3)cc2c1 [NCGC00063279-02]
IC50 [1]: 2.5 µM | IC50 [2]: 13.9 ± 2.6 µM | IC50 (full-length BLM helicase): 46.1 µM | Inhibition of WRN exonuclease activity at 200 μM [3]: some ability to inhibit | Inhibition of WRN exonuclease activity [3]: unable to inhibit
